Data as given in ChEMBL document CHEMBL1134838, “Structure-activity relationships at monoamine transporters and muscarinic receptors for N-substituted-3alpha-(3'-chloro-, 4'-chloro-, and 4',4''-dichloro-substituted-diphenyl)methoxytropanes” (J Med Chem, 2001).

How the values were obtained:
[1] = target: T1, Muscarinic acetylcholine receptor M1 (Rattus norvegicus, UniProt P08482); assay: Binding affinity for muscarinic m1 receptor was determined in vitro in rat brain using [3H]pirenzepine as radioligand.; type: tissue-based
T1 sequence (P08482 whole entry): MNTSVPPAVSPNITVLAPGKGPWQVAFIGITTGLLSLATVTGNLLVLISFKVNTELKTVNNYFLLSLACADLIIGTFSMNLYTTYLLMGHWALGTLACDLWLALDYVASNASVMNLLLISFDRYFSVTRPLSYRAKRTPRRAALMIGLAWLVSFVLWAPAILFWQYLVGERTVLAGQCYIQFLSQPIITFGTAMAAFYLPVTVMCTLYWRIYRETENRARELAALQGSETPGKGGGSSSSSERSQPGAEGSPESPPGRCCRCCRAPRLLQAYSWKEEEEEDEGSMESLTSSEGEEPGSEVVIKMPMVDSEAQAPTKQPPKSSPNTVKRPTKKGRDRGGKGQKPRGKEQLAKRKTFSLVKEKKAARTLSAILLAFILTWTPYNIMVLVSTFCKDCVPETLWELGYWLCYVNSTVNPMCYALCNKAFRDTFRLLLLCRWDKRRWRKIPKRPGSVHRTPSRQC

[2] = target: Sodium-dependent serotonin transporter (Rattus norvegicus, UniProt P31652); assay: Binding affinity for serotonin transporter was determined in vitro in rat brain using [3H]citalopram as radioligand.; type: tissue-based
[3] = target: Norepinephrine transporter (Rattus norvegicus, UniProt Q9WTR4); assay: Binding affinity for norepinephrine transporter in rat brain using [3H]-nisoxatine as radioligand; type: tissue-based
[4] = target: Sodium-dependent dopamine transporter (Rattus norvegicus, UniProt P23977); assay: biochemical; type: tissue-based, Brain
Sequence of Sodium-dependent dopamine transporter (P23977 whole entry): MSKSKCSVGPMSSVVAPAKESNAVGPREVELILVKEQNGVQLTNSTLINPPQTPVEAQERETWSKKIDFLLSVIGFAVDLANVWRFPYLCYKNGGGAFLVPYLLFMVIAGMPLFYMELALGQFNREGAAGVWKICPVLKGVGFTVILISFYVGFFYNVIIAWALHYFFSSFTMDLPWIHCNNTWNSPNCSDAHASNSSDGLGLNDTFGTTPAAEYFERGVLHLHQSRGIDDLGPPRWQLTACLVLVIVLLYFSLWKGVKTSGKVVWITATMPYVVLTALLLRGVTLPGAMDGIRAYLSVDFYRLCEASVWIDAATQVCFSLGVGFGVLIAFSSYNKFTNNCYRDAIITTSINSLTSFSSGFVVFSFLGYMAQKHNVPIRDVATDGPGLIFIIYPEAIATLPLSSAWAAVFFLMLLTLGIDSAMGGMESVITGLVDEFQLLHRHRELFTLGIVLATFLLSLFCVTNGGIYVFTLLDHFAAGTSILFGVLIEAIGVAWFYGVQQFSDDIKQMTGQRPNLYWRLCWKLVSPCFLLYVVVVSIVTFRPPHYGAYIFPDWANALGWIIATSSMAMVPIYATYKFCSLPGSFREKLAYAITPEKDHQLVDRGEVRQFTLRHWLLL
Description: Binding affinity for dopamine transporter was determined in vitro in rat brain using [3H]WIN-35428 s radioligand

Sequence of Norepinephrine transporter (Q9WTR4 whole entry): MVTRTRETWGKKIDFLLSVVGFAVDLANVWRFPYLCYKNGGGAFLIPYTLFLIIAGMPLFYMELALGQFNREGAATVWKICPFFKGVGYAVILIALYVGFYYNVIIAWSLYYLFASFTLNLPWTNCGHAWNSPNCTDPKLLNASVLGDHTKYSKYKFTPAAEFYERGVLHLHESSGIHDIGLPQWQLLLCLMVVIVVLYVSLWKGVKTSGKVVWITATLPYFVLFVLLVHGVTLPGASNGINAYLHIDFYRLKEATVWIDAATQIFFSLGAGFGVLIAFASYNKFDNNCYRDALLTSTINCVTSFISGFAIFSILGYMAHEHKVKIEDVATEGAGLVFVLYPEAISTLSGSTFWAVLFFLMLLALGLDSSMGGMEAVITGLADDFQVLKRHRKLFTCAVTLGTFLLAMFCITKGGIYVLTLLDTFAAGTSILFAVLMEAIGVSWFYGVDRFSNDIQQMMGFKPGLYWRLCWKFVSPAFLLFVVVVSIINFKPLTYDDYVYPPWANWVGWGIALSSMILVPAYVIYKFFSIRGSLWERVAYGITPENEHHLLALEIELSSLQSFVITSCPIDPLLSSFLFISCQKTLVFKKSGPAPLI
Sequence of Sodium-dependent serotonin transporter (P31652 whole entry): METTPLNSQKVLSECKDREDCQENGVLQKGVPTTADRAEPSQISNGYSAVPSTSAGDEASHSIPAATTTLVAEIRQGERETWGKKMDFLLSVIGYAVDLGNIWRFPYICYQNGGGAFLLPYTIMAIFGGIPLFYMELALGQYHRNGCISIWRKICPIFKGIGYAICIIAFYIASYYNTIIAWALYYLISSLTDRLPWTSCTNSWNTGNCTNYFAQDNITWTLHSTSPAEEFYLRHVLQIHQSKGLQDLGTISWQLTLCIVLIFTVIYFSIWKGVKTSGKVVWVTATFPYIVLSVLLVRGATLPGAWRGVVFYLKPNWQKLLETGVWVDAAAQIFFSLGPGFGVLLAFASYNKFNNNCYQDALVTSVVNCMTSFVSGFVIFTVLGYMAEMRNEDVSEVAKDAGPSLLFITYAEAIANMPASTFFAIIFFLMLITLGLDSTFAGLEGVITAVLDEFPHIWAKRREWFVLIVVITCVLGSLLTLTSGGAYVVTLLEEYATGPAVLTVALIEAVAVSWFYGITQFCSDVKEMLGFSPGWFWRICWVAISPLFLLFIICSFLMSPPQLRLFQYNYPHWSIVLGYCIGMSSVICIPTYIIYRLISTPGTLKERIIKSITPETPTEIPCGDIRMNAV

**Q.** What does the source list for `CCCCc1cccc(N2[C@@H]3CC[C@H]2C[C@H](OC(c2ccc(Cl)cc2)c2ccc(Cl)cc2)C3)c1`?
**A.** Ki [1]: 3730 nM; Ki [2]: 659 nM; Ki [3]: 4950 nM; Ki [4]: 85 nM

**Q.** For `CCCCc1cccc(N2[C@@H]3CC[C@H]2C[C@H](OC(c2ccccc2)c2ccc(Cl)cc2)C3)c1` (some centres undefined), which Ki [1] is on record?
**A.** Its Ki is 1430 nM.

**Q.** And the Ki [2]?
**A.** The Ki was 737 nM.

**Q.** And the Ki [3]?
**A.** Its Ki is 2320 nM.

**Q.** And the Ki [4]?
**A.** Its Ki is 53.3 nM.

**Q.** How did the Ki [1] turn out when `CCCc1cccc(N2[C@H]3CC[C@]2(C)C[C@@H](OC(c2ccccc2)c2ccc(Cl)cc2)C3)c1` (some centres undefined) was run?
**A.** The Ki was 397 nM.

**Q.** What about the Ki [2] of the same compound?
**A.** The Ki was 302 nM.

**Q.** And the Ki [3]?
**A.** Its Ki is 10300 nM.

**Q.** What about the Ki [4] of the same compound?
**A.** The Ki was 148 nM.

**Q.** `CCCc1cccc(N2[C@@H]3CC[C@H]2C[C@H](OC(c2ccccc2)c2cccc(Cl)c2)C3)c1` (some centres undefined) was tested. Which Ki [1] did it give?
**A.** The Ki was 337 nM.

**Q.** What about the Ki [2] of the same compound?
**A.** The Ki was 429 nM.

**Q.** What about the Ki [3] of the same compound?
**A.** The Ki was 1810 nM.

**Q.** What about the Ki [4] of the same compound?
**A.** Its Ki is 101 nM.

**Q.** With `CCCc1cccc(N2[C@@H]3CC[C@H]2C[C@H](OC(c2ccc(Cl)cc2)c2ccc(Cl)cc2)C3)c1` as the compound, how does the Ki [1] read?
**A.** The Ki was 3050 nM.

**Q.** What about the Ki [2] of the same compound?
**A.** The Ki was 585 nM.

**Q.** What about the Ki [3] of the same compound?
**A.** The Ki was 19800 nM.

**Q.** What about the Ki [4] of the same compound?
**A.** Its Ki is 158 nM.

**Q.** Which results are given for `CN1[C@@H]2CC[C@H]1C[C@@H](OC(c1ccccc1)c1cccc(Cl)c1)C2` (some centres undefined)?
**A.** Ki [2]: 258 nM; Ki [3]: 451 nM

**Q.** Which results are given for `CN1C2CCC1CC(OC(c1ccccc1)c1ccc(Cl)cc1)C2` (centres undefined)?
**A.** Ki [1]: 7.9 nM; Ki [2]: 5120 nM; Ki [3]: 1470 nM

**Q.** For `Clc1ccc(C(OC2CC3CCC(C2)N3)c2ccccc2)cc1` (centres undefined), which Ki [1] is on record?
**A.** Its Ki is 95.5 nM.

**Q.** What about the Ki [2] of the same compound?
**A.** Its Ki is 1320 nM.

**Q.** What about the Ki [3] of the same compound?
**A.** The Ki was 1010 nM.

**Q.** And the Ki [4]?
**A.** The Ki was 36.8 nM.

**Q.** Which Ki [1] does the source give for `Clc1ccc(C(OC2CC3CCC(C2)N3)c2ccc(Cl)cc2)cc1` (centres undefined) here?
**A.** The Ki was 649 nM.

**Q.** What about the Ki [2] of the same compound?
**A.** The Ki was 727 nM.

**Q.** And the Ki [3]?
**A.** Its Ki is 6040 nM.

**Q.** Which Ki [1] does the source give for `Clc1ccc(C(OC2CC3CCC(C2)N3Cc2ccccc2)c2ccc(Cl)cc2)cc1` (centres undefined) here?
**A.** Its Ki is 8630 nM.

**Q.** And the Ki [2]?
**A.** Its Ki is 3610 nM.

**Q.** What about the Ki [3] of the same compound?
**A.** The Ki was 7660 nM.

**Q.** And the Ki [4]?
**A.** The Ki was 399 nM.

**Q.** How did the Ki [1] turn out when `CCCCc1cccc(N2C3CCC2CC(OC(c2ccccc2)c2cccc(Cl)c2)C3)c1` (centres undefined) was run?
**A.** The Ki was 564 nM.

**Q.** And the Ki [2]?
**A.** Its Ki is 591 nM.

**Q.** What about the Ki [3] of the same compound?
**A.** Its Ki is 1470 nM.

**Q.** What about the Ki [4] of the same compound?
**A.** The Ki was 153 nM.

**Q.** Which results are given for `Clc1cccc(C(OC2CC3CCC(C2)N3Cc2ccccc2)c2ccccc2)c1` (centres undefined)?
**A.** Ki [1]: 674 nM; Ki [2]: 1680 nM; Ki [3]: 6460 nM; Ki [4]: 191 nM

**Q.** What does the source list for `C=CCN1C2CCC1CC(OC(c1ccccc1)c1cccc(Cl)c1)C2` (centres undefined)?
**A.** Ki [1]: 69.7 nM; Ki [2]: 1200 nM; Ki [3]: 1230 nM; Ki [4]: 33.6 nM

**Q.** How did the Ki [1] turn out when `Clc1ccc(C(OC2CC3CCC(C2)N3Cc2ccccc2)c2ccccc2)cc1` (centres undefined) was run?
**A.** Its Ki is 2560 nM.

**Q.** And the Ki [2]?
**A.** Its Ki is 3530 nM.

**Q.** What about the Ki [3] of the same compound?
**A.** The Ki was 13000 nM.

**Q.** And the Ki [4]?
**A.** The Ki was 365 nM.

**Q.** For `C=CCN1C2CCC1CC(OC(c1ccccc1)c1ccc(Cl)cc1)C2` (centres undefined), which Ki [1] is on record?
**A.** The Ki was 127 nM.

**Q.** What about the Ki [2] of the same compound?
**A.** Its Ki is 2330 nM.

**Q.** What about the Ki [3] of the same compound?
**A.** Its Ki is 4720 nM.

**Q.** What about the Ki [4] of the same compound?
**A.** The Ki was 84.2 nM.

**Q.** `C=CCN1C2CCC1CC(OC(c1ccc(Cl)cc1)c1ccc(Cl)cc1)C2` (centres undefined) was tested. Which Ki [1] did it give?
**A.** The Ki was 127 nM.

**Q.** And the Ki [2]?
**A.** Its Ki is 568 nM.

**Q.** What about the Ki [3] of the same compound?
**A.** Its Ki is 4140 nM.

**Q.** What about the Ki [4] of the same compound?
**A.** The Ki was 54.6 nM.

**Q.** With `Clc1cccc(C(OC2CC3CCC(C2)N3)c2ccccc2)c1` (centres undefined) as the compound, how does the Ki [1] read?
**A.** The Ki was 91.7 nM.

**Q.** What about the Ki [2] of the same compound?
**A.** Its Ki is 2100 nM.

**Q.** What about the Ki [3] of the same compound?
**A.** The Ki was 508 nM.

**Q.** And the Ki [4]?
**A.** The Ki was 26.2 nM.
